Source: patent US20020147145A1, “Materials and methods relating to the degradation of Cdc25A in response to DNA damage” (priority 2000, published 2002)
“Also recorded” adds a separate entry of the source. Non-standard residues stand in square brackets, D forms with d. Residues, ends and D or L forms follow the SMILES beside them. Nle = CCCC[C@H](N)C(=O)O

Legend:
Chk1/Cdc25A = Chk1/Cdc25A association (co-immunoprecipitation) in UV-irradiated U-2-OS cells transfected with HA-Cdc25A; type: cell-based, human; details: caffeine 10 mM, 1 hour preincubation before UV (15 J/m^2), lysed 2 hours later
Method: (§1) FIG. 3. […] Asynchronous SAOS-2 cells were irradiated with UV (15 J/m^2) or left untreated. Cells were harvested 2 hours later and lysates were subjected to immunoblotting and phosphatase activity measurements. […] After an additional 2 hours, cells were lysed and analyzed for levels and complexes of HACdc25A and Chk1 as indicated. […] Chk1 was immunoprecipitated from lysates of U-2-OS cells treated as in (B), and its activity determined in an in vitro kinase assay in the presence or absence of the Chk1 inhibitor, UCN-01 (1 μM), using purified GST-Cdc25A as a substrate.
(§2) Immunochemical techniques: Antibodies used in this study: Mouse monoclonal antibodies against human Cdc25A (DCS-122, DCS-124) and F-6 (Santa Cruz), Cdc25B (DCS-162, DCS-164) and Cdc25C (DCS-193) full length proteins fused to GST were generated by means of established hybridoma technology as described. Rabbit polyclonal antobody against Cdc25C (SC-327) were purchased from Santa Cruz. Antiserum against cdk2 Tyr15 was obtained from Calbiochem.

Cdc25A [1] = assay: Cdc25A protein level and turnover by immunoblotting in UV-irradiated U-2-OS cells; type: cell-based, human; parameters: UV-induced degradation of the endogenous Cdc25A protein: dose or concentration left out as unconfirmed
[2] = system: tyrosine phosphatases including Cdc25
Source text: as §2

Cdc25A [3] = assay: Cdc25A phosphatase activity assay (activation of cyclin B1/Cdc2) on lysates of UV-irradiated U-2-OS cells; type: cell-based, human; parameters: Cdc25A-associated phosphatase activity after UV: dose or concentration left out as unconfirmed
Chk1 = Chk1 (Homo sapiens, UniProt O14757); details: UCN-01 1 μM added into the kinase reaction; Chk1 immunoprecipitated from U-2-OS lysates
Sequence of Chk1 (O14757 whole entry): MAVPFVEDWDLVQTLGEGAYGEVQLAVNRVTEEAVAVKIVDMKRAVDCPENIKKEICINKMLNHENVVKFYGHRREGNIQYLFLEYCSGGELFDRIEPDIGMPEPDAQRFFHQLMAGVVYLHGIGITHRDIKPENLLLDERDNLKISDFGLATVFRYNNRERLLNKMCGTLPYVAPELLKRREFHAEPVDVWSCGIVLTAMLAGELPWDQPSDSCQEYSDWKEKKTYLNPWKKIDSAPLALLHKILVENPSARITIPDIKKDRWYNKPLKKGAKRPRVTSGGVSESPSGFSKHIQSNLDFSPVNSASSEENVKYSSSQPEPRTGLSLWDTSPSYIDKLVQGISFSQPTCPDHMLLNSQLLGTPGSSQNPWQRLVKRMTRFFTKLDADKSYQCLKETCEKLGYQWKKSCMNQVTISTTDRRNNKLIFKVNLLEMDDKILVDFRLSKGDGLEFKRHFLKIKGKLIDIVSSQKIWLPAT
Method: as §1, §2

[4] = UCN-01 at the time of UV irradiation (15 J/m^2), U-2-OS

For `Cn1c(=O)c2c(ncn2C)n(C)c1=O` [caffeine], the “UV-induced increase in Chk1/Cdc25A association” value (Chk1/Cdc25A) was “quantitatively prevented” and the “half-life of the Cdc25A protein after UV” value (Cdc25A [1]; caffeine prior to UV irradiation, compared to non-irradiated cells) was “restored”.

In the case of sodium vanadate, the “ability of mock-treated cell lysates to dephosphorylate and superactivate cyclin E/cdk2” value [2] is reported as “completely prevented”.

`CN[C@@H]1C[C@H]2O[C@@](C)([C@@H]1OC)n1c3ccccc3c3c4c(c5c6ccccc6n2c5c31)C(=O)N[C@@H]4O` [UCN-01] was tested, and the “Cdc25A-associated phosphatase activity after UV” value (Cdc25A [3]; [4]) was “allowed maintenance of high”, the “UV-induced degradation of the endogenous Cdc25A protein” value (Cdc25A [1]; [4]) was “completely abolished; also recorded: prevented” and the “basal and UV-induced Chk1 kinase activities towards GST-Cdc25A” value (Chk1) was “completely inhibited”.

With `CCCC[C@@H](C=O)NC(=O)[C@H](CC(C)C)NC(=O)[C@H](CC(C)C)NC(C)=O` [LLnL] (Ac-Leu-Leu-[Nle]-aldehyde) the “UV-induced reduction of Cdc25A phosphatase activity” value (Cdc25A [3]; LLnL 25 μg/ml added immediately after UV (15 J/m^2), endogenous and ectopic Cdc25A, 1 hour after UV) was “entirely prevented” and the “UV-induced reduction of Cdc25A protein level” value (Cdc25A [1]; LLnL 25 μg/ml added immediately after UV (15 J/m^2), U-2-OS (endogenous) and U-2-OS/B3C4 (ectopic Cdc25A), lysates 1 hour after UV) was “entirely prevented”.
